# Laboratory results as given in PubChem BioAssay (NCI).
#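 Tested at 5 concentrations; 48 h exposure; 96-well plates; endpoints linearly interpolated, else capped at highest concentration. GI50 = concentration required for 50% inhibition of growth. Definition used: TGI = concentration required for complete inhibition of growth.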
# Legend:
# Test in all cases: growth of human tumour cells (NCI), 48 h
# HCC-2998 colon = tested on: HCC-2998 colon
# HT29 colon = tested on: HT29 colon
# OVCAR-4 ovarian = tested on: OVCAR-4 ovarian
# SF-268 CNS = tested on: SF-268 CNS
# SF-295 CNS = tested on: SF-295 CNS
# SK-MEL-28 melanoma = tested on: SK-MEL-28 melanoma
# U251 CNS = tested on: U251 CNS
# UACC-257 melanoma = tested on: UACC-257 melanoma
# UACC-62 melanoma = tested on: UACC-62 melanoma
# UO-31 renal = tested on: UO-31 renal
SMILES,TGI (HCC-2998 colon) [µM],TGI (HT29 colon) [µM],TGI (OVCAR-4 ovarian) [µM],TGI (SF-268 CNS) [µM],TGI (SF-295 CNS) [µM],TGI (SK-MEL-28 melanoma) [µM],TGI (U251 CNS) [µM],TGI (UACC-257 melanoma) [µM],TGI (UACC-62 melanoma) [µM],TGI (UO-31 renal) [µM],GI50 (HCC-2998 colon) [µM],GI50 (HT29 colon) [µM],GI50 (OVCAR-4 ovarian) [µM],GI50 (SF-268 CNS) [µM],GI50 (SF-295 CNS) [µM],GI50 (U251 CNS) [µM],GI50 (UACC-257 melanoma) [µM],GI50 (UACC-62 melanoma) [µM],GI50 (UO-31 renal) [µM]
O=c1cc(O)c2ccccc2o1,> 100,> 100,> 100,> 100,> 100,> 100,> 100,> 100,> 100,> 100,–,–,–,–,–,–,–,–,–
CCOC(=O)NC,> 100,> 100,> 100,> 100,> 100,> 100,> 100,> 100,> 100,> 100,–,–,–,–,–,–,–,–,–
CC1(O)CC23CC1CCC2(C)C12CCCC(C)(C(=O)O1)C2CC3O (stereo not given),> 100,> 100,> 100,> 100,> 100,> 100,> 100,> 100,> 100,> 100,–,–,–,–,–,–,–,–,–
COc1cc(O)c2c(c1)C(=O)c1cc(C)cc(O)c1C2=O,> 100,> 100,> 100,> 100,> 100,> 100,> 100,> 100,> 100,> 100,–,–,–,–,–,–,–,–,–
O=C1c2ccccc2C(=O)c2c1ccc(C(=O)O)c2-c1ccc2ccccc2c1,> 100,> 100,> 100,98.1,81,> 100,55.4,> 100,37.8,83.3,–,–,–,–,–,–,–,–,–
Cc1cc(=O)oc2c1cc(OCC(=O)OCCN1CCCCC1)c1occ(C)c12,> 100,> 100,> 100,–,> 100,> 100,> 100,> 100,> 100,> 100,–,–,–,–,–,–,–,–,–
Nc1nnc(N)n1NC(=O)C(=O)Nc1ccc([N+](=O)[O-])cc1,> 100,> 100,> 100,> 100,> 100,> 100,> 100,> 100,> 100,> 100,–,–,–,–,–,–,–,–,–
COc1cc(C)c2c(=O)c3c(oc2c1)C(=O)c1c(O)c(OC)cc(O)c1C3=O,25,> 50,4.28,> 50,3.23,7.44,2.53,3.1,4.61,3.62,–,–,–,–,–,–,–,–,–
Fc1ccc(-c2nnc3sc(COc4ccccc4Cl)nn23)cc1Cl,> 100,> 100,78.4,> 100,> 100,–,67.2,> 100,> 100,> 100,> 100,48.1,28.2,41.9,61.8,24.9,46.2,38.4,32.7
c1ccc2sc(SCN(C3CCCCC3)C3CCCCC3)nc2c1,> 100,> 100,> 100,> 100,> 100,> 100,> 100,> 100,> 100,> 100,–,–,–,–,–,–,–,–,–
O=C(O)C1=NNC(C(=O)O)=NN1,–,> 100,> 100,> 100,> 100,> 100,> 100,> 100,> 100,> 100,–,–,–,–,–,–,–,–,–
NC(=O)Nc1cc(O)ccc1N=Nc1ccc(S(=O)(=O)Nc2ccccn2)cc1,> 100,> 100,> 100,> 100,> 100,> 100,> 100,> 100,> 100,> 100,–,–,–,–,–,–,–,–,–
COc1c(Cl)cc(S(=O)O)cc1Cl,> 100,> 100,> 100,> 100,–,> 100,> 100,> 100,> 100,> 100,–,–,–,–,–,–,–,–,–
